The results in this text go back to paper PMC10057480, “Expanding the Library of 1,2,4-Oxadiazole Derivatives: Discovery of New Farnesoid X Receptor (FXR) Antagonists/Pregnane X Receptor (PXR) Agonists” (Molecules, 2023).

Data set [1] has as its target T1, PXR (Homo sapiens, UniProt O75469).
T1 construct: expressed in transfected cells; host or cells: HepG2
T1 sequence (O75469 1-434): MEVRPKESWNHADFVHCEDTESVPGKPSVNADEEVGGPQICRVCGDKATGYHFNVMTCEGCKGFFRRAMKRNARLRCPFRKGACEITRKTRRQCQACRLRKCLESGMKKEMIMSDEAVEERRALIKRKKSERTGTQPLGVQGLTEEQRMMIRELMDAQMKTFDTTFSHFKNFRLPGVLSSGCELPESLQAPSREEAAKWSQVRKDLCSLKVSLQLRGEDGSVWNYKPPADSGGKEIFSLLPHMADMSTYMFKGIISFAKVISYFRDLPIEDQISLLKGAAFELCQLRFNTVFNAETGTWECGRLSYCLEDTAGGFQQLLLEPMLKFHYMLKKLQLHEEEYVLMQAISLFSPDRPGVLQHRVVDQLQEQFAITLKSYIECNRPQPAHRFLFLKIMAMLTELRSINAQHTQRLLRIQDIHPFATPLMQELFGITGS
T1 sequence (P19793 1-462 partner): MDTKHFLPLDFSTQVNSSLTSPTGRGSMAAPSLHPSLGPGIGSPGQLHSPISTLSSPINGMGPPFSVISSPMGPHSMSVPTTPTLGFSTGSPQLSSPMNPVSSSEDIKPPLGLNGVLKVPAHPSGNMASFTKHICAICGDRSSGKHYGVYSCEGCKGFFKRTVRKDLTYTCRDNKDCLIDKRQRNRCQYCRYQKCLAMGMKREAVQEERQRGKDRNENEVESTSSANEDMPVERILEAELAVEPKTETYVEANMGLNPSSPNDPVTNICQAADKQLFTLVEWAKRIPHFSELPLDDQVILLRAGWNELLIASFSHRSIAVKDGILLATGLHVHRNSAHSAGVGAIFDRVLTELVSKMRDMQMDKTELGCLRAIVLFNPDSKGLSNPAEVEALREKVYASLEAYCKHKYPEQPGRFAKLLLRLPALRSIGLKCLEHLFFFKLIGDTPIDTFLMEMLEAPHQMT
In words: PXR luciferase reporter transactivation assay (agonism) on HepG2 cells. Conditions: compound 10 μM, maximal transactivation compared to Rifaximin 10 μM, mean ± SD, at least three experiments. In kind it is cell-based. As for the experimental part:
The antagonistic activity on FXR was investigated using HepG2 cells transfected with 100 ng of pSG5-FXR and pSG5-RXR, 200 ng of the reporter vector p(hsp27)-TK-LUC containing the FXR response element, and 100 ng of the pGL4.70 vector encoding the human Renilla gene used as a transfection control. Cells were stimulated with the agonist 6-ECDCA (10 µM) alone or in combination with compounds 2–11 after 24 h. In another experimental setting, HepG2 cells were transfected using 100 ng of pSG5-PXR, 100 ng of pSG5-RXR, and 100 ng of pGL4.70, along with the reporter vector pGL3(henance)PXRE. At 24 h post-transfection, cells were stimulated with rifaximin 10 μM (as a positive control) or compounds 2–11 (10 μM). The specificity of compounds 5 and 11 versus FXR and PXR was tested using HepG2 cells transiently transfected with 200 ng of the reporter vector p(UAS)5XTKLuc, 100 ng of a vector containing the ligand binding domain of LXRα or LXRβand 100 ng of pGL4.70, a vector encoding the human Renilla gene. At 24 h post-transfection, cells were stimulated for 18 h with GW3965 (5 μM), compounds 5 and 11 (10 μM), and the combination of GW3965 plus 5 or 11 (50 μM). Cellular lysate was assayed for luciferase and Renilla activities after 18 h using the Dual-Luciferase Reporter assay system (E1980, Promega, Madison, WI, USA). The activity of luciferase was measured using the Glomax 20/20 luminometer (Promega, Madison, WI, USA) and normalized with Renilla activities.

Data set [2] can be described thus: LogD measurement (1-octanol/PBS pH 7.4, LC-MS/MS). In kind it is physicochemical. As to the method:
40 μL of a 10 mM solution in DMSO of each compound was added to a 2 mL test tube containing 980 μL of PBS pH 7.4 and 980 μL of 1-Octanol (in duplicate). The tubes were shaken for 2 h at room temperature and subsequently kept still to allow for an optimal phase separation. The two phases were then separated, and 10 μL of each sample was diluted in 490 μL of MeOH for LC-MS/MS analysis. LogD was calculated as Log10 of the ratio of mass signal octanol/PBS. LC-MS/MS analysis was conducted using a Kinetex 2.6 µm C18 100 Å LC column 100 × 2.1 mm by means of a linear gradient of the aqueous phase (H2O 0.1% FA) and organic phase (ACN 0.1% FA).

Data set [3] concerns FXR target genes (BSEP, OSTα, NTCP) in HepG2 cells. The data set can be described thus: qPCR of FXR target genes in HepG2 cells. Conditions: 6-ECDCA 10 μM plus compound. In kind it is cell-based. As for the experimental part: HepG2 and CaCo2 cell lines, obtained from ATCC, were routinely cultured in Eagle’s MEM and high-glucose DMEM, respectively, supplemented with 10% FBS, 1% glutamine, and penicillin/streptomycin. For in vitro experiments, HepG2 (2 × 106) cells were stimulated with 6-ECDCA at a concentration of 10 µM alone or in combination with compound 5 or 11, and CaCo2 cells were exposed to TNFα (100 ng/mL) alone or in combination with rifaximin, compound 5, or 11.
Total RNA was isolated from the HepG2 and CaCo2 cell lines using TRI reagent (Zymo Research) and Direct-zol™ RNA MicroPrep w/Zymo-Spin™ IIC Columns (Zymo Research, Irvine, CA, USA). After purification from genomic DNA using DNase I (Thermo Fisher Scientific, Waltham, MA, USA), 2 μg of RNA from each sample was reverse transcribed using Kit FastGene Scriptase Basic (Nippon Genetics, Mariaweilerstraße, Düren, Germany) in 20-μL of reaction volume, and 50 ng of cDNA was amplified in a 20-μL solution containing 200 nM of each primer and 10 μL of PowerUp™ SYBR™ Green Master Mix (Thermo Fisher Scientific, Waltham, MA, USA) using a Quantstudio 3 system (Applied Biosystems, Foster City, CA, USA). The relative mRNA expression was calculated according to the ΔCt method. The primer used were as follows (forward and reverse): hGapdh (for […]; rev […]), hBsep (for […]; rev […]), hOstα (for […]; rev […]), hNtcp (for […]; rev […]), hPxr (for GCAAGGGCTTTTTCAGGAG; rev GGGTCTTCCGGGTGATCT), hIl-8 (for […]; rev […]), hIl-1β (for […]; rev […]).
In general terms: In qPCR the cycle at which signal appears reflects the starting amount.

SMILES strings stand for the structures. Values joined by “and” are separate entries in the source; they are usually repeats but may differ in a detail not shown here. Equal entries are not always repeated.

Broadly, the logD is lipophilicity at a set pH, counting ionised and neutral species. For `OCc1ccc(CN2CCC(c3nc(-c4ccc5ccccc5c4)no3)CC2)cc1` [Compound 11, 5-[1-(4-(Hydroxymethyl)benzyl)piperidin-4-yl]-3-(naphthalen-2-yl)-1,2,4-oxadiazole], in data set [1], the “PXR Agonism Eff (%)” value was 105% and 105 ± 15%. In data set [2], this compound had a logD at 2 h of 3.9. Moreover, in data set [3], the “Effect on BSEP mRNA expression induced by 6-ECDCA” value was “reversed the effect” and the “Effect on OSTα mRNA expression induced by 6-ECDCA” value is on record as “only a trend”.
Turning to `CCCCCN1CCC(c2nc(-c3ccc4ccccc4c3)no2)CC1` [Compound 5, 3-(Naphthalen-2-yl)-5-(1-pentylpiperidin-4-yl)-1,2,4-oxadiazole], the “PXR Agonism Eff (%)” value in data set [1] was 71% and 71 ± 4%. For the same compound, the logD at 2 h in data set [2] was 4.4. Further, in data set [3], the “Effect on BSEP mRNA expression induced by 6-ECDCA” value is reported as “reversed the effect”, the “Effect on NTCP mRNA expression” value was “showed antagonistic activity” and the “Effect on OSTα mRNA expression induced by 6-ECDCA” value is given as “only a trend”.
